Like-named read-outs stand apart in the source and are kept apart here.
Molecular target: human P2X7 receptor (Homo sapiens, UniProt Q99572, R270H/Y155H)
Assay: Evaluation of human P2X7 receptor inhibitory activity (Yo-Pro uptake, BzATP stimulation, FLIPR TETRA)
Format: cell-based
Conditions: 1321N1 cells stably expressing human P2X7 receptor, BzATP stimulation, Yo-Pro uptake
Summary of the method: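 1321N1 cells stably expressing human P2X7 (T606C/G952A SNP variant), in HBSS buffer pH 7.4-7.5 with Yo-Pro, stimulated with BzATP; compound added 8 min after agonist. Fluorescence followed for 20 min on FLIPR; max-minus-min change gave % inhibition, IC50 by logistic fit.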

[1] = read-out: IC50 (antagonistic activity for the human P2X7 receptor), class symbol
[2] = read-out: IC50 (antagonistic activity for the human P2X7 receptor)

Compound | IC50 [1] [nM] | IC50 [2] [nM]
CCc1cc(OC)c(OC)cc1Nc1nc(=O)c(OC)cn1Cc1cccc(F)c1 [Compound I-0269] | < 10 | 
CCc1cc(OC)c(OC)cc1Nc1nc(=O)c(OC)cn1Cc1ccc(F)cc1 [Compound I-0270] | < 10 | 
CCc1cc(OC)c(OC)cc1Nc1nc(=O)c(OC)cn1Cc1cccc(Cl)c1 [Compound I-0271] | < 10 | 
CCc1cc(OC)c(OC)cc1Nc1nc(=O)c(OC)cn1Cc1ccc(F)c(F)c1 [Compound I-0272] | < 10 | 
CCc1cc(OC)c(OC)cc1Nc1nc(=O)c(OC)cn1Cc1ccc(F)c(Cl)c1 [Compound I-0273] | < 10 | 
COc1cc(C)c(Nc2nc(=O)c(OC)cn2Cc2cccc(F)c2)cc1OC [Compound I-0274] | < 10 | 
COc1cc(C)c(Nc2nc(=O)c(OC)cn2Cc2ccc(F)cc2)cc1OC [Compound I-0275] | 10 to 100 | 
COc1cc(C)c(Nc2nc(=O)c(OC)cn2Cc2ccc(F)c(F)c2)cc1OC [Compound I-0276] | 10 to 100 | 
COc1cn(Cc2ccc(F)c(F)c2)c(Nc2cc(C)c(C)cc2C)nc1=O [Compound I-0277] | < 10 | 
COc1cn(Cc2ccccc2)c(Nc2cc(CO)c(C)cc2C)nc1=O [Compound I-0278] | < 10 | 
COc1cn(Cc2ccc(F)c(F)c2)c(Nc2cc(C)c(Cl)cc2C)nc1=O [Compound I-0279] | < 10 | 
COc1cn(Cc2ccc(Cl)c(F)c2)c(Nc2cccc(Cl)c2C)nc1=O [Compound I-0280] | 10 to 100 | 
COc1cc(C)cc(Nc2nc(=O)c(OC)cn2Cc2ccccc2)c1C [Compound I-0281] | < 10 | 
COc1cc(C)c(Nc2nc(=O)c(OC)cn2Cc2ccc(F)cc2)cc1C [Compound I-0282] | < 10 | 
COc1cc(C)c(Nc2nc(=O)c(OC)cn2Cc2ccc(F)c(F)c2)cc1C [Compound I-0283] | < 10 | 
Cc1cc(C)c(Nc2nc(=O)c(C(=O)NCc3ccccc3)cn2Cc2ccccc2)cc1C [Compound I-0284] | 500 to 1000 | 
COc1cn(Cc2cc(F)cc(Cl)c2)c(Nc2cccc(Cl)c2C)nc1=O [Compound I-0285] | 10 to 100 | 
COc1cn(Cc2cccc(F)c2F)c(Nc2cccc(Cl)c2C)nc1=O [Compound I-0286] | 10 to 100 | 
COc1cn(Cc2ccccc2)c(Nc2cc3c(cc2C)OCCO3)nc1=O [Compound I-0287] | 10 to 100 | 
COc1cn(Cc2cccc(F)c2)c(Nc2cc3c(cc2C)OCCO3)nc1=O [Compound I-0288] | 10 to 100 | 
COc1cn(Cc2ccc(F)cc2)c(Nc2cc3c(cc2C)OCCO3)nc1=O [Compound I-0289] |  | 27

Compound | IC50 [1] [nM] | IC50 [2] [nM]
COc1cn(Cc2cccc(Cl)c2)c(Nc2cc3c(cc2C)OCCO3)nc1=O [Compound I-0290] | 10 to 100 | 
COc1cn(Cc2ccc(F)c(F)c2)c(Nc2cc3c(cc2C)OCCO3)nc1=O [Compound I-0291] | 10 to 100 | 
COc1cn(Cc2ccc(F)c(Cl)c2)c(Nc2cc3c(cc2C)OCCO3)nc1=O [Compound I-0292] | 10 to 100 | 
COc1cn(Cc2ccc(Cl)c(F)c2)c(Nc2cc3c(cc2C)OCCO3)nc1=O [Compound I-0293] | 10 to 100 | 
COc1cn(Cc2ccccc2C(F)(F)F)c(Nc2cccc(Cl)c2C)nc1=O [Compound I-0294] |  | 250
COc1cn(Cc2cccc(C(F)(F)F)c2)c(Nc2cccc(Cl)c2C)nc1=O [Compound I-0295] |  | 170
COc1cn(Cc2ccc(Cl)c(Cl)c2)c(Nc2cccc(Cl)c2C)nc1=O [Compound I-0296] | 10 to 100 | 
COc1cn(Cc2ccc(C(F)(F)F)cc2)c(Nc2cccc(Cl)c2C)nc1=O [Compound I-0297] |  | 250
COc1cn(Cc2ccccc2)c(Nc2cc(C)cc(C)c2C)nc1=O [Compound I-0298] | 10 to 100 | 
COc1cn(Cc2cccc(Cl)c2)c(Nc2cc(C)c(OC(F)F)cc2C)nc1=O [Compound I-0299] | 10 to 100 | 
COc1cn(Cc2cccc(F)c2)c(Nc2cc(C)c(OC(F)F)cc2C)nc1=O [Compound I-0300] | < 10 | 
COc1cn(Cc2ccc(F)cc2)c(Nc2cc(C)c(OC(F)F)cc2C)nc1=O [Compound I-0301] | < 10 | 
COc1cn(Cc2ccc(F)c(F)c2)c(Nc2cc(C)c(OC(F)F)cc2C)nc1=O [Compound I-0302] | < 10 | 
COc1cn(Cc2ccccc2OC(F)(F)F)c(Nc2cccc(Cl)c2C)nc1=O [Compound I-0303] | 100 to 500 | 
COc1cn(Cc2cccc(OC(F)(F)F)c2)c(Nc2cccc(Cl)c2C)nc1=O [Compound I-0304] | 500 to 1000 | 
Cc1cc(C)c(Nc2nc(=O)c(F)cn2Cc2ccc(F)cc2)cc1C [Compound I-0306] | < 10 | 
Cc1cc(C)c(Nc2nc(=O)c(Cl)cn2Cc2ccccc2)cc1C [Compound I-0307] | < 10 | 
COc1cc(C)c(Nc2nc(=O)c(F)cn2Cc2cccc(Cl)c2)cc1OC [Compound I-0308] | < 10 | 
COc1cc(C)c(Nc2nc(=O)c(F)cn2Cc2ccc(F)c(Cl)c2)cc1OC [Compound I-0309] | < 10 | 
COc1cc(C)c(Nc2nc(=O)c(Cl)cn2Cc2ccccc2)cc1OC [Compound I-0310] | 10 to 100 | 
COc1cn(Cc2c(F)cccc2F)c(Nc2cccc(Cl)c2C)nc1=O [Compound I-0311] | 100 to 500 | 

Compound | IC50 [1] [nM] | IC50 [2] [nM]
COc1cn(Cc2cccc(Cl)c2)c(Nc2cccc(C)c2C)nc1=O [Compound I-0312] | 10 to 100 | 
Cc1ccc(N2CCCS2(=O)=O)cc1Nc1nc(=O)c(Cl)cn1Cc1ccccc1 [Compound I-0313] | 10 to 100 | 
CCc1c(Nc2nc(=O)c(F)cn2Cc2ccc(F)cc2)cc(OC)cc1OC [Compound I-0314] | < 10 | 
CCc1c(Nc2nc(=O)c(F)cn2Cc2cccc(Cl)c2)cc(OC)cc1OC [Compound I-0315] | < 10 | 
CCc1c(Nc2nc(=O)c(F)cn2Cc2ccc(F)c(Cl)c2)cc(OC)cc1OC [Compound I-0316] | < 10 | 
COc1cn(Cc2cc(Cl)cc(Cl)c2)c(Nc2cccc(Cl)c2C)nc1=O [Compound I-0317] | 100 to 500 | 
COc1cc(C)c(Nc2nc(=O)c(F)cn2Cc2ccccc2)cc1C [Compound I-0318] | < 10 | 
COc1cc(C)c(Nc2nc(=O)c(F)cn2Cc2ccc(F)cc2)cc1C [Compound I-0319] | < 10 | 
COc1cn(Cc2ccccc2)c(Nc2cc(OC(C)C)ccc2C)nc1=O [Compound I-0320] | 100 to 500 | 
COc1cn(Cc2ccc(F)c(Cl)c2)c(Nc2cc(OC(C)C)ccc2C)nc1=O [Compound I-0321] | 10 to 100 | 
CCc1ccccc1Nc1nc(=O)c(OC)cn1Cc1cccc(Cl)c1 [Compound I-0322] | 10 to 100 | 
COc1cn(Cc2cccc(F)c2)c(Nc2cccc(C)c2C)nc1=O [Compound I-0323] | < 10 | 
COc1cn(Cc2ccc(F)c(F)c2)c(Nc2cccc(C)c2C)nc1=O [Compound I-0324] | < 10 | 
COc1cn(Cc2ccc(F)c(Cl)c2)c(Nc2cccc(C)c2C)nc1=O [Compound I-0325] | < 10 | 
COc1cn(Cc2cc(F)cc(F)c2)c(Nc2cccc(C)c2C)nc1=O [Compound I-0326] | < 10 | 
CCc1ccccc1Nc1nc(=O)c(OC)cn1Cc1cc(F)cc(F)c1 [Compound I-0327] | 10 to 100 | 
COc1cn(Cc2cc(F)ccc2F)c(Nc2cccc(Cl)c2C)nc1=O [Compound I-0328] | 10 to 100 | 
COc1cn(Cc2ccc(F)cc2F)c(Nc2cccc(Cl)c2C)nc1=O [Compound I-0329] | 10 to 100 | 
CNC(=O)Cc1cn(Cc2ccccc2)c(Nc2cccc(Cl)c2C)nc1=O [Compound I-0330] | 100 to 500 | 
Cc1c(Cl)cccc1Nc1nc(=O)c(CC(=O)N(C)C)cn1Cc1ccccc1 [Compound I-0331] | 100 to 500 | 
COc1cn(Cc2ccc(F)cc2)c(Nc2cc(C)ccc2C)nc1=O [Compound I-0332] | 10 to 100 | 

Compound | IC50 [1] [nM] | IC50 [2] [nM]
COc1cn(Cc2cccc(Cl)c2)c(Nc2cc(C)ccc2C)nc1=O [Compound I-0333] | 10 to 100 | 
COc1cn(Cc2ccc(F)c(Cl)c2)c(Nc2cc(C)ccc2C)nc1=O [Compound I-0334] | < 10 | 
COc1cn(Cc2ccc(F)c(Cl)c2)c(N[C@@H]2CCc3ccccc32)nc1=O [Compound I-0335] |  | 170
COc1cn(Cc2ccc(F)c(Cl)c2)c(N[C@@H]2CCCc3ccccc32)nc1=O [Compound I-0336] |  | 120
Cc1c(Cl)cccc1Nc1nc(=O)c(CC(=O)NCCO)cn1Cc1ccccc1 [Compound I-0337] | 100 to 500 | 
Cc1c(Cl)cccc1Nc1nc(=O)c(CC(=O)NC2CCOCC2)cn1Cc1ccccc1 [Compound I-0338] | 100 to 500 | 
Cc1c(Cl)cccc1Nc1nc(=O)c(CC(=O)N2CCOCC2)cn1Cc1ccccc1 [Compound I-0339] | 100 to 500 | 
COCCNC(=O)Cc1cn(Cc2ccccc2)c(Nc2cccc(Cl)c2C)nc1=O [Compound I-0340] | 100 to 500 | 
Cc1c(Cl)cccc1Nc1nc(=O)c(CC(=O)NCc2ccccc2)cn1Cc1ccccc1 [Compound I-0341] | 100 to 500 | 
Cc1c(Cl)cccc1Nc1nc(=O)c(CC(=O)NC2COC2)cn1Cc1ccccc1 [Compound I-0342] | 100 to 500 | 
Cc1c(Cl)cccc1Nc1nc(=O)c(CC(=O)NCC#N)cn1Cc1ccccc1 [Compound I-0344] | 100 to 500 | 
COc1cc(C)c(Nc2nc(=O)c(Cl)cn2Cc2ccc(F)c(Cl)c2)cc1OC [Compound I-0345] | < 10 | 
COc1cc(C)c(Nc2nc(=O)c(Cl)cn2Cc2cccc(Cl)c2)cc1OC [Compound I-0346] | < 10 | 
COc1cn(Cc2cc(F)c(F)cc2F)c(Nc2cccc(Cl)c2C)nc1=O [Compound I-0347] |  | 20
COc1cc(C)c(Nc2nc(=O)c(F)cn2Cc2cccc(Cl)c2)cc1C [Compound I-0348] | < 10 | 
COc1cc(C)c(Nc2nc(=O)c(F)cn2Cc2ccc(F)c(Cl)c2)cc1C [Compound I-0349] | < 10 | 
CCc1cc(OC)c(OC)cc1Nc1nc(=O)c(F)cn1Cc1cccc(Cl)c1 [Compound I-0350] | < 10 | 
CCc1cc(OC)c(OC)cc1Nc1nc(=O)c(Cl)cn1Cc1ccccc1 [Compound I-0351] | < 10 | 
